Kd, IC50 and EC50 data for 31 molecules are collected here from patent US11518764B2, “Substituted heteroaryls as inhibitors of the BCL6 BTB domain protein-protein interaction” (Ontario Institute for Cancer Research (OICR), priority 2018, dated 2022).

In one experiment the target is BCL6 BTB domain (Homo sapiens (Human), UniProt P41182). Briefly: Surface plasmon resonance (SPR) assay. The experiment is classed as binding. To be noted: BCL6 BTB domain captured on SA chip, single cycle kinetics. (In general: SPR reads the build-up and loss of mass on a sensor chip optically.)
For another experiment, the system named is Karpas422 cells. The experiment is described as follows: Tumor cell growth inhibition assay. Type of experiment: cell-based. In a few lines:
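Karpas422 cells (2,000/well) in Alpha-MEM with 10% FBS dosed across 10 concentrations (top 5 uM) and grown six days at 37° C., 5% CO2. Viability read as ATPlite luminescence.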

Experiment [1] has as its system BCL6 reporter construct (3xBCL6-TK-Luc) in SuDHL4 cells. The experiment is described as follows: Cell-based luciferase assay. In a few lines:
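SuDHL4 cells stably carrying a 3×BCL6-site TK-promoter firefly luciferase reporter, seeded at 15,000 cells/well, were dosed over a 10-point range (top 10 uM) and grown two days at 37 °C, 5% CO2. Luminescence then read after adding neolite reagent at room temperature.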

Where [2] appears, read: Homo sapiens, KARPAS-422, 144 h, read-out: Tumor Growth Inhibition in Karpas-422 (IC50, uM), Karpas422 cells, six days, ATPlite.
The mark [3] stands for this setting: Homo sapiens, SU-DHL-4, 48 h, read-out: Luciferase-Assay EC50, uM), SuDHL4-3xBCL6-TK-Luc cells, two days, high dose 10 uM.
Where [4] appears, read: read-out: Tumor Growth Inhibition in Karpas-422 (IC50), Karpas422 cells, six days, ATPlite.
Where [5] appears, read: read-out: Luciferase-Assay EC50, SuDHL4-3xBCL6-TK-Luc cells, two days, high dose 10 uM.

Like-named read-outs stand apart in the source and are kept apart here.

As to `Cc1nc2c(c(-c3cc(C(N)=O)c(O)c4c3OCO4)cn2CC(=O)Nc2cc(N3CCNC[C@@H]3C)nc(F)c2Cl)c(=O)n1C` [Compound I-230], binding on BCL6 BTB domain was characterised by a dissociation constant (Kd) of 2.32 nM. Further, the IC50 – broadly, the concentration that gives 50% inhibition – in the experiment with Karpas422 cells (setting [2]) came to 0.0157 µM. Moreover, in experiment [1] (setting [3]), the EC50 (usually the concentration at which the effect is half-maximal) worked out at 0.0625 µM.
For `CN1CCN(c2cc(NC(=O)Cn3cc(-c4cc(C(N)=O)c(O)c(F)c4F)c4c(=O)n(C)cnc43)c(Cl)cn2)CC1` [Compound I-231], in that order: 89.9 nM, 1.18 µM and 1.47 µM.
For `Cc1nc2c(c(-c3cc(Cl)c(O)c(C(N)=O)c3)cn2CC(=O)Nc2cc(N3CC(C)(C)N(C)C(C)(C)C3)ncc2Cl)c(=O)n1C` [Compound I-232], in that order: 11.8 nM, 0.222 µM and 0.267 µM.
For `C[C@H]1COCCN1c1cc(NC(=O)Cn2cc(-c3cc(F)c(O)c(C(N)=O)c3)c3c(=O)n(C)c(C(F)(F)F)nc32)c(Cl)cn1` [Compound I-234], in that order: 48.8 nM, 0.255 µM and 0.441 µM.
Turning to `C[C@H]1COCCN1c1cc(NC(=O)Cn2cc(-c3cc(Cl)c(O)c(C(N)=O)c3)c3c(=O)n(C)cnc32)c(Cl)c(F)n1` [Compound I-235], binding on BCL6 BTB domain was put at a Kd of 14 nM. Further, the IC50 with Karpas422 cells (setting [2]) was 0.138 µM. Moreover, in experiment [1] (setting [3]), the EC50 amounted to 0.139 µM.
For `Cn1cnc2c(c(-c3cc(Cl)c(O)c(C(N)=O)c3)cn2CC(=O)Nc2cc(N3CCN4C(=O)CCC4C3)ncc2Cl)c1=O` (stereo not drawn) [Compound I-236], in that order: 16.6 nM, 0.385 µM and 0.739 µM.
For `Cn1cnc2c(c(-c3cc(Cl)c(O)c(C(N)=O)c3)cn2CC(=O)Nc2cc(N3CCN4C(=O)OCC4C3)ncc2Cl)c1=O` (stereo not drawn) [Compound I-237], on BCL6 BTB domain, the Kd (in general, the concentration at which binding is half-saturated) was 17.6 nM. Also, in the experiment on Karpas422 cells (setting [2]), the IC50 was determined as 1.25 µM. Besides, the EC50 in experiment [1] (setting [3]) amounted to 1.04 µM.
For `CN1CC2CN(c3cc(NC(=O)Cn4cc(-c5cc(Cl)c(O)c(C(N)=O)c5)c5c(=O)n(C)cnc54)c(Cl)cn3)CCN2C1=O` (stereo not drawn) [Compound I-238], in that order: 12.1 nM, 0.291 µM and 0.588 µM.
In turn, `C[C@H]1COCCN1c1cc(NC(=O)Cn2cc(-c3cc(Cl)c(O)c(C(N)=O)c3)c3c(=O)n(C)cnc32)c(F)cn1` [Compound I-241] displayed a Kd on BCL6 BTB domain of 19.5 nM. Moreover, the IC50 in the experiment with Karpas422 cells (setting [2]) was 0.281 µM. For the same molecule, the EC50 in experiment [1] (setting [3]) is 0.483 µM.
For `NC(=O)c1cc(-c2cn(CC(=O)Nc3cc(N4CC5CCC(C4)O5)ncc3Cl)c3nc[nH]c(=O)c23)cc(Cl)c1O` [Compound I-242], in that order: 5.01 nM, 0.312 µM and 0.483 µM.
For `Cc1nc2c(c(-c3cc(F)c(O)c(C(N)=O)c3)cn2CC(=O)Nc2cc(N3CC(C)(C)NC(C)(C)C3)ncc2Cl)c(=O)n1C` [Compound I-243], in that order: 12.4 nM, 0.134 µM and 0.19 µM.
`Cn1cnc2c(c(-c3cc(Cl)c(O)c(C(N)=O)c3)cn2CC(=O)Nc2cc(N3CCOC4CC43)ncc2Cl)c1=O` (stereo not drawn) [Compound I-244] yielded a Kd on BCL6 BTB domain of 8.46 nM. Also, the half-maximal inhibitory concentration (IC50) in the experiment with Karpas422 cells (setting [2]) was 0.169 µM. Also, in experiment [1] (setting [3]), the concentration for a half-maximal effect (EC50) stood at 0.279 µM.
For `Cn1cnc2c(c(-c3cc(Cl)c(O)c(C(N)=O)c3)cn2CC(=O)Nc2cc(N3CCOCC34CCC4)ncc2Cl)c1=O` [Compound I-245], in that order: 20.4 nM, 0.182 µM and 0.245 µM.
For `Cn1cnc2c(c(-c3cc(Cl)c(O)c(C(N)=O)c3)cn2CC(=O)NC2CCCCC2F)c1=O` (stereo not drawn) [Compound I-246], in that order: 1320 nM, 10 µM and 10 µM.
For `C[C@H]1COCCN1c1cc(NC(=O)Cn2cc(-c3cc(Cl)c(O)c(C(N)=O)c3)c3c(=O)n(C)c(-c4ccccc4)nc32)c(Cl)cn1` [Compound I-248], in that order: 326 nM, 0.29 µM and 11.9 µM.
With `Cc1nc2c(c(-c3cc(C(N)=O)c(O)c(F)c3F)cn2CC(=O)Nc2cc(N3CCOC[C@@H]3C)ncc2Cl)c(=O)n1C` [Compound I-249], the Kd at BCL6 BTB domain was 77.3 nM. In addition, the IC50 in the experiment with Karpas422 cells (setting [2]) came to 0.736 µM. In experiment [1] (setting [3]), the EC50 was 0.689 µM.
For `Cc1nc2c(c(-c3cc(F)c(O)c(C(N)=O)c3)cn2CC(=O)Nc2cc(N3CC(C)(C)N(C)C(C)(C)C3)ncc2Cl)c(=O)n1C` [Compound I-250], in that order: 16.3 nM, 0.0902 µM and 0.0822 µM.
Consider `Cn1cnc2c(c(-c3cc(Cl)c(O)c(C(N)=O)c3)cn2CC(=O)Nc2cc(N3CCOC(C(F)(F)F)C3)ncc2Cl)c1=O` (stereo not drawn) [Compound I-256], for which binding at BCL6 BTB domain was put at a Kd of 211 nM. For the same molecule, the half-maximal inhibitory concentration (IC50) in the experiment on Karpas422 cells (setting [4]) stood at 0.274 µM. Besides, in experiment [1] (setting [5]), the EC50 was found to be 0.509 µM.
For `Cn1cnc2c(c(-c3cc(Cl)c(O)c(C(N)=O)c3)cn2CC(=O)Nc2cc(N3CCOC(C(F)(F)F)C3)ncc2Cl)c1=O` (stereo not drawn) [Compound I-258], in that order: 100 nM, 0.491 µM and 0.549 µM.
As to `C[C@@H]1COC[C@@H](C)N1c1cc(NC(=O)Cn2cc(-c3cc(Cl)c(O)c(C(N)=O)c3)c3c(=O)n(C)cnc32)c(Cl)cn1` [Compound I-259], the affinity on BCL6 BTB domain, expressed as Kd, was 38.5 nM. Also, the 50% inhibitory concentration (IC50) in the experiment with Karpas422 cells (setting [2]) was determined as 0.652 µM. Also, the EC50 in experiment [1] (setting [3]) is 0.214 µM.
On to `C[C@H]1CN(C)CCN1c1cc(NC(=O)Cn2cc(-c3cc(Cl)c(O)c(C(N)=O)c3)c3c(=O)n(C)c(-c4ccccc4)nc32)c(Cl)cn1` [Compound I-260, (S)-3-chloro-5-(7-(2-((5-chloro-2-(2,4-dimethylpiperazin-1-yl)pyridin-4-yl)amino)-2-oxoethyl)-3-methyl-4-oxo-2-phenyl-4,7-dihydro-3H-pyrrolo[2,3-d]pyrimidin-5-yl)-2-hydroxybenzamide], for which binding at BCL6 BTB domain was characterised by a dissociation constant (Kd) of 58.8 nM. For the same molecule, in the experiment with Karpas422 cells (setting [2]), the IC50 was 0.238 µM. Besides, in experiment [1] (setting [3]), the EC50 is 10 µM.
On BCL6 BTB domain, `C[C@H]1CN(C)CCN1c1cc(NC(=O)Cn2cc(-c3cc(Cl)c(O)c(C(N)=O)c3)c3c(=O)[nH]c(-c4ccccc4)nc32)c(Cl)cn1` [Compound I-261, (S)-3-chloro-5-(7-(2-((5-chloro-2-(2,4-dimethylpiperazin-1-yl)pyridin-4-yl)amino)-2-oxoethyl)-4-oxo-2-phenyl-4,7-dihydro-3H-pyrrolo[2,3-d]pyrimidin-5-yl)-2-hydroxybenzamide] had a Kd of 39.8 nM. Moreover, the IC50 in the experiment with Karpas422 cells (setting [2]) came to 0.225 µM. Further, the half-maximal effective concentration (EC50) in experiment [1] (setting [3]) was 0.65 µM.
For `C[C@H]1COCCN1c1cc(NC(=O)Cn2cc(-c3cc(Cl)c(O)c(C(N)=O)c3)c3c(=O)n(C)c(Cl)nc32)c(Cl)cn1` [Compound I-262], in that order: 22.8 nM, 0.389 µM and 0.468 µM.
`C[C@@H]1COC[C@H](C)N1c1cc(NC(=O)Cn2cc(-c3cc(Cl)c(O)c(C(N)=O)c3)c3c(=O)n(C)cnc32)c(Cl)cn1` [Compound I-264]: on BCL6 BTB domain, the affinity, expressed as Kd, was 30.3 nM. The IC50 in the experiment with Karpas422 cells (setting [2]) was 0.376 µM. In experiment [1] (setting [3]), the EC50 turned out to be 0.347 µM.
Take `C[C@H]1CN(C)CCN1c1cc(NC(=O)Cn2cc(-c3cc(C(N)=O)c(O)c(Cl)c3F)c3c(=O)n(C)c(C(F)(F)F)nc32)c(Cl)cn1` [Compound I-267]: the Kd at BCL6 BTB domain came to 582 nM. For the same molecule, the IC50 in the experiment on Karpas422 cells (setting [2]) worked out at 3.79 µM. Besides, the EC50 in experiment [1] (setting [3]) worked out at 2.27 µM.
Take `CCN(C)c1nc2c(c(-c3cc(Cl)c(O)c(C(N)=O)c3)cn2CC(=O)Nc2cc(N3CCOC[C@@H]3C)ncc2Cl)c(=O)n1C` [Compound I-269, (S)-3-chloro-5-(7-(2-((5-chloro-2-(3-methylmorpholino)pyridin-4-yl)amino)-2-oxoethyl)-2-(ethyl(methyl)amino)-3-methyl-4-oxo-4,7-dihydro-3H-pyrrolo[2,3-d]pyrimidin-5-yl)-2-hydroxybenzamide]: the affinity at BCL6 BTB domain, expressed as Kd, was 157 nM. In addition, the IC50 in the experiment on Karpas422 cells (setting [2]) was determined as 1.7 µM. Further, in experiment [1] (setting [3]), the EC50 is 8.55 µM.
For `C[C@H]1COCCN1c1cc(NC(=O)Cn2cc(-c3cc(Cl)c(O)c(C(N)=O)c3)c3c(=O)n(C)c(N4CCC4)nc32)c(Cl)cn1` [Compound I-270, (S)-5-(2-(azetidin-1-yl)-7-(2-((5-chloro-2-(3-methylmorpholino)pyridin-4-yl)amino)-2-oxoethyl)-3-methyl-4-oxo-4,7-dihydro-3H-pyrrolo[2,3-d]pyrimidin-5-yl)-3-chloro-2-hydroxybenzamide], in that order: 63 nM, 3.82 µM and 2.31 µM.
For `CC(C)N1CCN(c2cc(NC(=O)Cn3cc(-c4cc(Cl)c(O)c(C(N)=O)c4)c4c(=O)n(C)cnc43)c(Cl)cn2)[C@@H](C)C1` [Compound I-271], in that order: 16 nM, 0.22 µM and 0.208 µM.
For `Cc1nc2c(c(-c3cc(Cl)c(O)c(C(N)=O)c3)cn2CC(=O)Nc2cc(N3CCN(C(C)C)C[C@@H]3C)ncc2Cl)c(=O)n1C` [Compound I-272], in that order: 14.8 nM, 0.145 µM and 0.133 µM.
As to `Cn1cnc2c(c(-c3cc(F)c(O)c(C(N)=O)c3)cn2CC(=O)Nc2cc(N3CCCC3)ncc2Cl)c1=O` [Compound I-273], binding on BCL6 BTB domain was characterised by a dissociation constant (Kd) of 5.31 nM. In the experiment with Karpas422 cells (setting [2]), the IC50 was 0.251 µM. For the same molecule, the concentration giving a half-maximal response (EC50) in experiment [1] (setting [3]) was 0.416 µM.
For `CC(C)N1CCN(c2cc(NC(=O)Cn3cc(-c4cc(Cl)c(O)c(C(N)=O)c4)c4c(=O)n(C)c(C(F)(F)F)nc43)c(Cl)cn2)[C@@H](C)C1` [Compound I-274], in that order: 138 nM, 0.332 µM and 0.669 µM.
